We go through four molecules from ChEMBL document CHEMBL1150812, “New taxane analogues from the needles of Taxus canadensis” (J Nat Prod, 2001).

The structures appear in SMILES notation.

This assay deals with MCF7. Description: Antiproliferative activity against human MCF7 cells after 72 hrs by MTT assay. Conditions: MCF7, 72 h. The assay is classed as functional, cell-based. On the technique in general: Tetrazolium assays rely on reduction of a dye to a coloured formazan, in cell work by metabolically active cells.
With `CC(=O)O[C@@]12CO[C@@H]1C[C@H](O)[C@@]1(C)C(=O)C(=O)C3=C(C)[C@@H](OC(=O)[C@H](O)[C@@H](NC(=O)c4ccccc4)c4ccccc4)C[C@@](O)([C@@H](OC(=O)c4ccccc4)[C@H]21)C3(C)C`, the 50% inhibitory concentration (IC50) (commonly the concentration that gives 50% inhibition) was determined as 64 nM.
As for `C/C=C(\C)C(=O)N[C@@H](c1ccccc1)[C@@H](O)C(=O)O[C@H]1C[C@@]2(O)[C@@H](OC(=O)c3ccccc3)[C@@H]3[C@]4(OC(C)=O)CO[C@@H]4C[C@@H](O)[C@@]3(C)C(=O)C(=O)C(=C1C)C2(C)C`, the figure is 80 nM; as for `CC(=O)O[C@H]1C[C@H]2OC[C@@]2(OC(C)=O)[C@H]2[C@H](OC(=O)c3ccccc3)[C@]3(O)C[C@H](OC(=O)[C@H](O)[C@@H](NC(=O)c4ccccc4)c4ccccc4)C(C)=C([C@@H](O)C(=O)[C@]12C)C3(C)C`, 10 nM.
As for `C/C=C(\C)C(=O)N[C@@H](c1ccccc1)[C@@H](O)C(=O)O[C@H]1C[C@@]2(O)[C@@H](OC(=O)c3ccccc3)[C@@H]3[C@]4(OC(C)=O)CO[C@@H]4C[C@H](O)[C@@]3(C)C(=O)[C@H](OC(C)=O)C(=C1C)C2(C)C` [CEPHALOMANNINE], the figure is 6 nM.
